Experimental data as given in US20100267561A1, “HERBICIDAL PYRIDAZINONE DERIVATIVES” (priority 2007, published 2010).

Experiments:
Format in all cases: in vivo
[1] = test system: barnyardgrass (Echinochloa crus-galli); experiment: Test A pre-/postemergence plant response
Method in brief: (§1)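 Seeds in loam soil/sand blend treated preemergence by directed soil spray, with simultaneous postemergence spray on 2–10 cm plants at one- to two-leaf stage; compounds in non-phytotoxic solvent with surfactant. Injury visually rated versus untreated controls after about 10 days in greenhouse, 0 (no effect) to 100 (complete control).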

[2] = test system: wheat (Triticum aestivum); experiment: Test A pre-/postemergence plant response
Method in brief: as §1

[3] = test system: large crabgrass (Digitaria sanguinalis); experiment: Test A pre-/postemergence plant response
Method in brief: as §1

[4] = test system: morningglory (Ipomoea coccinea); experiment: Test A pre-/postemergence plant response
Method in brief: as §1

[5] = test system: giant foxtail (Setaria faberi); experiment: Test A pre-/postemergence plant response
Method in brief: as §1

[6] = test system: pigweed (Amaranthus retroflexus); experiment: Test A pre-/postemergence plant response
Method in brief: as §1

[7] = test system: velvetleaf (Abutilon theophrasti); experiment: Test A pre-/postemergence plant response
Method in brief: as §1

corn (Zea mays) = experiment: Test A pre-/postemergence plant response
Method in brief: as §1

[8] = test system: green foxtail (Setaria viridis); experiment: Test B pre-/postemergence plant response
Method in brief: (§2)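 Preemergence and postemergence (plants 2-18 cm, 1- to 4-leaf stage) applications used test chemicals in a non-phytotoxic solvent with surfactant. Plants were held in a greenhouse 13 to 15 days, then rated visually against controls on a 0-100 scale (0 no effect, 100 complete control).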

[9] = test system: eastern black (E.B.) nightshade (Solanum ptycanthum); experiment: Test B pre-/postemergence plant response; conditions: Preemergence; for Nightshade, E. B. plant response rating: scale 0 to 100
Method in brief: as §2

[10] = test system: barnyardgrass (Echinochloa crus-galli); experiment: Test B flooded paddy test plant response
Method in brief: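 Paddy-water application to 2-leaf plants in pots held under 3 cm of flooding; response is a 0–100 visual control rating against controls after 13 to 15 days, and a dash marks a missing result.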

[11] = Postemergence, 31 g ai/ha, 0 to 100 scale (0 no effect, 100 complete control)
[12] = Postemergence, 125 g ai/ha, 0 to 100 scale, 0 no effect, 100 complete control
[13] = Preemergence, 31 g ai/ha, 0 to 100 scale, 0 is no effect, 100 is complete control
[14] = Preemergence, 125 g ai/ha, 0 to 100 scale (0 no effect, 100 complete control)
[15] = Preemergence, 31 g ai/ha, scale 0 to 100 (0 no effect, 100 complete control)
[16] = Preemergence, 62 g ai/ha, 0 to 100 scale, 0 no effect, 100 complete control
[17] = Preemergence, 8 g ai/ha, scale 0 to 100
[18] = Preemergence, 16 g ai/ha, scale 0 to 100
[19] = 31 g ai/ha, scale 0 to 100 (0 no effect, 100 complete control)
[20] = 62 g ai/ha, 0 to 100 scale, 0 no effect, 100 complete control
[21] = Flood (flooded paddy test), 62 g ai/ha, scale 0 to 100, 0 no effect, 100 complete control
[22] = Flood (flooded paddy test), 250 g ai/ha, scale 0 to 100, 0 no effect, 100 complete control

C#CCOC(=O)Oc1cnn(C)c(=O)c1-n1nc(-c2ccc(Cl)cc2)cc1C [Compound 58]
90: Plant response rating, Crabgrass, Large [3, 14] | Plant response rating, Foxtail, Giant [5, 12] | Plant response rating, Foxtail, Giant [5, 13]
100: Plant response rating, Barnyardgrass [1, 14] | Plant response rating, Foxtail, Giant [5, 14] | Plant response rating, Foxtail, Green [8, 15] | Plant response rating, Foxtail, Green [8, 16] | Foxtail, Green plant response rating [8, 17] | Foxtail, Green plant response rating [8, 18]
60: Plant response rating, Wheat [2, 12] | Plant response rating, Crabgrass, Large [3, 13] | Plant response rating, Corn (corn (Zea mays); [12])
50: Plant response rating, Barnyardgrass [1, 13]
0: Plant response rating, Barnyardgrass [1, 11] | Plant response rating, Wheat [2, 11] | Plant response rating, Crabgrass, Large [3, 11] | Plant response rating, Morningglory [4, 11] | Plant response rating, Morningglory [4, 12] | Plant response rating, Morningglory [4, 13] | Plant response rating, Morningglory [4, 14] | Plant response rating, Pigweed [6, 11] | Plant response rating, Pigweed [6, 12] | Plant response rating, Pigweed [6, 13] | Plant response rating, Pigweed [6, 14] | Plant response rating, Velvetleaf [7, 11] | Plant response rating, Velvetleaf [7, 12] | Plant response rating, Velvetleaf [7, 13] | Plant response rating, Velvetleaf [7, 14] | Plant response rating, Corn (corn (Zea mays); [11]) | Plant response rating, Corn (corn (Zea mays); [13]) | Plant response rating, Nightshade, E. B. [9, 19] | Plant response rating, Nightshade, E. B. [9, 20] | Nightshade, E. B. plant response rating ([9]; 8 g ai/ha) | Nightshade, E. B. plant response rating ([9]; 16 g ai/ha)
70: Plant response rating, Wheat [2, 14] | Plant response rating, Crabgrass, Large [3, 12] | Plant response rating, Barnyardgrass [10, 22]
80: Plant response rating, Barnyardgrass [1, 12]
30: Plant response rating, Barnyardgrass [10, 21]
20: Plant response rating, Wheat [2, 13] | Plant response rating, Foxtail, Giant [5, 11] | Plant response rating, Corn (corn (Zea mays); [14])

CCc1cc(-c2ccc(Br)cc2)nn1-c1c(O)cnn(C)c1=O [Compound 61]
90: Plant response rating, Barnyardgrass [1, 13] | Plant response rating, Wheat [2, 12] | Plant response rating, Wheat [2, 14] | Plant response rating, Corn (corn (Zea mays); [14])
95: Foxtail, Green plant response rating ([8]; 8 g ai/ha, postemergence, 0-100 scale)
70: Plant response rating, Wheat [2, 13] | Plant response rating, Corn (corn (Zea mays); [13])
80: Plant response rating, Wheat [2, 11] | Plant response rating, Crabgrass, Large [3, 13]
50: Plant response rating, Barnyardgrass ([10]; Flood (flooded paddy test), 125 g ai/ha, scale 0 to 100, 0 no effect, 100 complete control)
100: Plant response rating, Barnyardgrass [1, 11] | Plant response rating, Barnyardgrass [1, 12] | Plant response rating, Barnyardgrass [1, 14] | Plant response rating, Crabgrass, Large [3, 11] | Plant response rating, Crabgrass, Large [3, 12] | Plant response rating, Crabgrass, Large [3, 14] | Plant response rating, Foxtail, Giant [5, 11] | Plant response rating, Foxtail, Giant [5, 12] | Plant response rating, Foxtail, Giant [5, 13] | Plant response rating, Foxtail, Giant [5, 14] | Plant response rating, Corn (corn (Zea mays); [11]) | Plant response rating, Corn (corn (Zea mays); [12]) | Plant response rating, Foxtail, Green ([8]; Postemergence, 16 g ai/ha, scale 0 to 100) | Plant response rating, Foxtail, Green ([8]; Postemergence, 31 g ai/ha, scale 0 to 100) | Plant response rating, Foxtail, Green ([8]; Postemergence, 62 g ai/ha, scale 0 to 100, 0 no effect, 100 complete control) | Plant response rating, Foxtail, Green [8, 15] | Plant response rating, Foxtail, Green [8, 16] | Foxtail, Green plant response rating [8, 17] | Foxtail, Green plant response rating [8, 18] | Plant response rating, Barnyardgrass [10, 22]
0: Plant response rating, Morningglory [4, 11] | Plant response rating, Morningglory [4, 12] | Plant response rating, Morningglory [4, 13] | Plant response rating, Morningglory [4, 14] | Plant response rating, Pigweed [6, 11] | Plant response rating, Pigweed [6, 12] | Plant response rating, Pigweed [6, 13] | Plant response rating, Pigweed [6, 14] | Plant response rating, Velvetleaf [7, 11] | Plant response rating, Velvetleaf [7, 12] | Plant response rating, Velvetleaf [7, 13] | Plant response rating, Velvetleaf [7, 14] | Plant response rating, Nightshade, E. B. [9, 19] | Plant response rating, Nightshade, E. B. [9, 20] | Nightshade, E. B. plant response rating ([9]; 16 g ai/ha) | Plant response rating, Barnyardgrass [10, 21] | Plant response rating, Barnyardgrass ([10]; Flood, 31 g ai/ha, scale 0 to 100)
